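Values below derive from 48-hour exposures of cells grown in 96-well plates, with endpoints linearly interpolated between the two concentrations bracketing the appropriate inhibition level. TGI marks complete inhibition of growth.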
Key:
Test in all cases: NCI-60 cell line screen, 48 h
OVCAR-4 ovarian = system: OVCAR-4 ovarian
NCI-H226 lung = system: NCI-H226 lung
SK-MEL-28 melanoma = system: SK-MEL-28 melanoma
MALME-3M melanoma = system: MALME-3M melanoma
MDA-MB-435 = system: MDA-MB-435
HL-60(TB) leukemia = system: HL-60(TB) leukemia
U251 CNS = system: U251 CNS
KM12 colon = system: KM12 colon
NCI-H460 lung = system: NCI-H460 lung
RPMI-8226 leukemia = system: RPMI-8226 leukemia
SK-MEL-5 melanoma = system: SK-MEL-5 melanoma
RXF 393 renal = system: RXF 393 renal
CCRF-CEM leukemia = system: CCRF-CEM leukemia
HCC-2998 colon = system: HCC-2998 colon
TK-10 renal = system: TK-10 renal
SF-268 CNS = system: SF-268 CNS

O=C(O)c1ccccc1/C=N/NC1=NCCCCN1
TGI (OVCAR-4 ovarian): > 100 µM
TGI (NCI-H226 lung): > 100 µM
TGI (SK-MEL-28 melanoma): > 100 µM
TGI (MALME-3M melanoma): > 100 µM
TGI (MDA-MB-435): > 100 µM
TGI (HL-60(TB) leukemia): > 100 µM
TGI (U251 CNS): > 100 µM
TGI (KM12 colon): > 100 µM
TGI (NCI-H460 lung): > 100 µM
TGI (RPMI-8226 leukemia): > 100 µM
TGI (SK-MEL-5 melanoma): > 100 µM
TGI (RXF 393 renal): > 100 µM
TGI (CCRF-CEM leukemia): > 100 µM
TGI (HCC-2998 colon): > 100 µM
TGI (TK-10 renal): > 100 µM
TGI (SF-268 CNS): > 100 µM

Cc1ccc(/C=C/C(=O)c2cc(CN(C)C)c(O)c(CN(C)C)c2)cc1
TGI (NCI-H226 lung): 59.5 µM
TGI (SK-MEL-28 melanoma): 33.6 µM
TGI (MALME-3M melanoma): 35.6 µM
TGI (MDA-MB-435): 57 µM
TGI (HL-60(TB) leukemia): 38.5 µM
TGI (U251 CNS): 58 µM
TGI (KM12 colon): 25.2 µM
TGI (NCI-H460 lung): 26.1 µM
TGI (RPMI-8226 leukemia): 48.3 µM
TGI (SK-MEL-5 melanoma): 30.6 µM
TGI (RXF 393 renal): 55 µM
TGI (CCRF-CEM leukemia): > 100 µM
TGI (HCC-2998 colon): 46.2 µM
TGI (TK-10 renal): > 100 µM
TGI (SF-268 CNS): > 100 µM

C/C=C/C(=O)N1C(=O)OC[C@@H]1c1ccccc1
TGI (OVCAR-4 ovarian): 45.3 µM
TGI (NCI-H226 lung): 39.6 µM
TGI (SK-MEL-28 melanoma): 45.5 µM
TGI (MALME-3M melanoma): 39.7 µM
TGI (MDA-MB-435): 70 µM
TGI (HL-60(TB) leukemia): 43 µM
TGI (U251 CNS): 48.5 µM
TGI (KM12 colon): 29.3 µM
TGI (RPMI-8226 leukemia): 50 µM
TGI (SK-MEL-5 melanoma): 38.4 µM
TGI (RXF 393 renal): 37.2 µM
TGI (CCRF-CEM leukemia): 44.8 µM
TGI (HCC-2998 colon): 41.3 µM
TGI (TK-10 renal): 32.2 µM
TGI (SF-268 CNS): 44.1 µM

Cc1cc(NS(=O)(=O)c2ccc(Nc3c4ccccc4nc4ccc(C(=O)Nc5ccc(S(N)(=O)=O)cc5)cc34)cc2)no1
TGI (OVCAR-4 ovarian): > 100 µM
TGI (NCI-H226 lung): > 100 µM
TGI (SK-MEL-28 melanoma): > 100 µM
TGI (MALME-3M melanoma): > 100 µM
TGI (MDA-MB-435): > 100 µM
TGI (HL-60(TB) leukemia): > 100 µM
TGI (U251 CNS): > 100 µM
TGI (KM12 colon): > 100 µM
TGI (NCI-H460 lung): > 100 µM
TGI (RPMI-8226 leukemia): > 100 µM
TGI (SK-MEL-5 melanoma): > 100 µM
TGI (RXF 393 renal): > 100 µM
TGI (CCRF-CEM leukemia): > 100 µM
TGI (HCC-2998 colon): > 100 µM
TGI (TK-10 renal): > 100 µM
TGI (SF-268 CNS): > 100 µM

NC(=O)c1[nH]cnc1/N=N/SCC(N)C(=O)O (centres undefined)
TGI (OVCAR-4 ovarian): > 100 µM
TGI (NCI-H226 lung): > 100 µM
TGI (SK-MEL-28 melanoma): > 100 µM
TGI (MALME-3M melanoma): > 100 µM
TGI (MDA-MB-435): > 100 µM
TGI (HL-60(TB) leukemia): 6.66 µM
TGI (U251 CNS): > 100 µM
TGI (KM12 colon): > 62.5 µM
TGI (NCI-H460 lung): > 100 µM
TGI (RPMI-8226 leukemia): > 100 µM
TGI (SK-MEL-5 melanoma): > 100 µM
TGI (RXF 393 renal): > 100 µM
TGI (CCRF-CEM leukemia): > 100 µM
TGI (HCC-2998 colon): > 30.6 µM
TGI (TK-10 renal): > 100 µM
TGI (SF-268 CNS): > 100 µM

Cc1ccc(/C=C/C(=N/NC(=O)N/N=C(/C=C/c2ccc(C)cc2)C(C)(C)CN2CCCCC2)C(C)(C)CN2CCCCC2)cc1
TGI (OVCAR-4 ovarian): 4.26 µM
TGI (NCI-H226 lung): 4.51 µM
TGI (SK-MEL-28 melanoma): 3.18 µM
TGI (MALME-3M melanoma): 3.07 µM
TGI (MDA-MB-435): 2.76 µM
TGI (HL-60(TB) leukemia): 3.35 µM
TGI (U251 CNS): 2.82 µM
TGI (KM12 colon): 3.01 µM
TGI (NCI-H460 lung): 3.08 µM
TGI (RPMI-8226 leukemia): 0.897 µM
TGI (SK-MEL-5 melanoma): 3.08 µM
TGI (RXF 393 renal): 2.68 µM
TGI (CCRF-CEM leukemia): 3.08 µM
TGI (HCC-2998 colon): 3.21 µM
TGI (TK-10 renal): 3.26 µM
TGI (SF-268 CNS): 4.64 µM

NC(=Nc1ccc(O)cc1)S(=O)O
TGI (OVCAR-4 ovarian): > 100 µM
TGI (NCI-H226 lung): > 100 µM
TGI (SK-MEL-28 melanoma): > 100 µM
TGI (MALME-3M melanoma): > 100 µM
TGI (MDA-MB-435): > 100 µM
TGI (HL-60(TB) leukemia): > 100 µM
TGI (U251 CNS): > 100 µM
TGI (KM12 colon): > 100 µM
TGI (RPMI-8226 leukemia): > 100 µM
TGI (SK-MEL-5 melanoma): > 100 µM
TGI (RXF 393 renal): > 100 µM
TGI (CCRF-CEM leukemia): > 100 µM
TGI (HCC-2998 colon): > 100 µM
TGI (TK-10 renal): > 100 µM
TGI (SF-268 CNS): > 100 µM

C=CCOC(=O)[C@@H]1C[C@@H](OC(C)(C)C)CN1C(=O)[C@@H]1[C@H]2OC(C)(C)O[C@H]2CN1C(=O)OCC1c2ccccc2-c2ccccc21
TGI (OVCAR-4 ovarian): 34.1 µM
TGI (NCI-H226 lung): 47.7 µM
TGI (SK-MEL-28 melanoma): 34.6 µM
TGI (MALME-3M melanoma): 39.2 µM
TGI (MDA-MB-435): 34.7 µM
TGI (HL-60(TB) leukemia): 29.1 µM
TGI (U251 CNS): 28.8 µM
TGI (KM12 colon): 11 µM
TGI (NCI-H460 lung): 23.6 µM
TGI (RPMI-8226 leukemia): 32.3 µM
TGI (SK-MEL-5 melanoma): 37 µM
TGI (RXF 393 renal): 24.7 µM
TGI (CCRF-CEM leukemia): 36.3 µM
TGI (HCC-2998 colon): 30.7 µM
TGI (TK-10 renal): 32.5 µM
TGI (SF-268 CNS): 40.1 µM

O=C1NC(N2CCCC(CO)C2)=N/C1=C\c1ccc(Cl)cc1 (centres undefined)
TGI (OVCAR-4 ovarian): > 100 µM
TGI (NCI-H226 lung): > 100 µM
TGI (SK-MEL-28 melanoma): > 100 µM
TGI (MALME-3M melanoma): > 100 µM
TGI (MDA-MB-435): > 100 µM
TGI (HL-60(TB) leukemia): > 100 µM
TGI (U251 CNS): > 100 µM
TGI (KM12 colon): > 100 µM
TGI (RPMI-8226 leukemia): > 100 µM
TGI (SK-MEL-5 melanoma): > 100 µM
TGI (RXF 393 renal): > 100 µM
TGI (CCRF-CEM leukemia): > 100 µM
TGI (HCC-2998 colon): > 100 µM
TGI (TK-10 renal): > 100 µM
TGI (SF-268 CNS): > 100 µM

C=CC[C@@]1(C)CCCCCCCCC[C@@](C)(CC=C)C1=O
TGI (OVCAR-4 ovarian): > 100 µM
TGI (NCI-H226 lung): 48.4 µM
TGI (SK-MEL-28 melanoma): > 100 µM
TGI (MALME-3M melanoma): 58.1 µM
TGI (MDA-MB-435): > 100 µM
TGI (HL-60(TB) leukemia): 46.1 µM
TGI (U251 CNS): 33 µM
TGI (KM12 colon): 94.5 µM
TGI (NCI-H460 lung): 59.1 µM
TGI (RPMI-8226 leukemia): 66.7 µM
TGI (SK-MEL-5 melanoma): 29.5 µM
TGI (RXF 393 renal): 32.6 µM
TGI (CCRF-CEM leukemia): 42.8 µM
TGI (HCC-2998 colon): 35 µM
TGI (TK-10 renal): > 100 µM
TGI (SF-268 CNS): > 100 µM

NNc1[nH]c(=S)[nH]c1C(N)=O
TGI (OVCAR-4 ovarian): > 100 µM
TGI (NCI-H226 lung): > 100 µM
TGI (SK-MEL-28 melanoma): > 100 µM
TGI (MALME-3M melanoma): > 100 µM
TGI (MDA-MB-435): > 100 µM
TGI (HL-60(TB) leukemia): > 100 µM
TGI (U251 CNS): > 100 µM
TGI (KM12 colon): > 100 µM
TGI (NCI-H460 lung): > 100 µM
TGI (RPMI-8226 leukemia): > 100 µM
TGI (SK-MEL-5 melanoma): > 100 µM
TGI (RXF 393 renal): > 100 µM
TGI (CCRF-CEM leukemia): > 100 µM
TGI (HCC-2998 colon): > 100 µM
TGI (TK-10 renal): > 100 µM
TGI (SF-268 CNS): > 100 µM

COc1cc2c(cc1O)[C@@H]1Cc3c(cc(OC)c(OC)c3Oc3cc4c(cc3OC)CCN(C)[C@@H]4Cc3ccc(O)cc3)[C@H](C2)N1C
TGI (OVCAR-4 ovarian): > 100 µM
TGI (NCI-H226 lung): > 100 µM
TGI (SK-MEL-28 melanoma): 34.9 µM
TGI (MALME-3M melanoma): 32.2 µM
TGI (MDA-MB-435): 40.8 µM
TGI (HL-60(TB) leukemia): 36.6 µM
TGI (U251 CNS): > 100 µM
TGI (KM12 colon): > 100 µM
TGI (NCI-H460 lung): > 100 µM
TGI (RPMI-8226 leukemia): > 79.6 µM
TGI (SK-MEL-5 melanoma): 30.1 µM
TGI (RXF 393 renal): 37.4 µM
TGI (CCRF-CEM leukemia): > 72.1 µM
TGI (HCC-2998 colon): > 72 µM
TGI (TK-10 renal): > 100 µM
TGI (SF-268 CNS): > 100 µM

O=[N+]([O-])/C(C(Cl)=C(Cl)Cl)=C(/Sc1ccccc1)N1CCCCC1
TGI (OVCAR-4 ovarian): > 100 µM
TGI (NCI-H226 lung): > 100 µM
TGI (SK-MEL-28 melanoma): > 100 µM
TGI (MALME-3M melanoma): > 100 µM
TGI (MDA-MB-435): > 100 µM
TGI (HL-60(TB) leukemia): > 26.8 µM
TGI (U251 CNS): > 100 µM
TGI (KM12 colon): > 100 µM
TGI (NCI-H460 lung): > 100 µM
TGI (RPMI-8226 leukemia): > 100 µM
TGI (SK-MEL-5 melanoma): > 88.1 µM
TGI (RXF 393 renal): > 100 µM
TGI (CCRF-CEM leukemia): > 100 µM
TGI (HCC-2998 colon): > 100 µM
TGI (TK-10 renal): > 100 µM
TGI (SF-268 CNS): > 100 µM
